In patent US20050282743A1, “Molecular interactions in cells” (Arbor Vita Corporation, priority 2001, published 2005) one finds Classification data, which are given here for twelve molecules.

Ends that are not written are not given here. Peptide text beside a SMILES is read from it. * marks the point of attachment. Biotin = O=C1N[C@H]2[C@H](CS[C@H]2CCCCC(=O)*)N1

What all share (assay): G' assay (10 uM PL peptide), results of TABLE 7 and TABLE 12
Type in all cases: binding

Assay [1] deals with T1, PDZ protein (GST-PDZ fusion) (Homo sapiens, UniProt Q96RT1).
T1 construct: made in house; host or cells: E. coli (DH5alpha, BL21 or JM109)
As to conditions: PDZ Erbin, PDZ Domain 1. In outline:
(§1)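 Biotinylated PL peptides at 10 uM (vs 20 uM in G^0 assay) bound to GST-PDZ fusions; PDZ protein at 5 ug/ml unless another concentration listed. Bound peptide read as A450 nm, classified 0–5 (0 = A450 0; 5 = A450 >4 repeated).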

Assay [2] concerns the target T2, PDZ protein (GST-PDZ fusion) (Homo sapiens, UniProt Q9Y2H9).
T2 construct: made in house; host or cells: E. coli (DH5alpha, BL21 or JM109)
Particulars: PDZ KIAA0973, PDZ Domain 1. In a few lines:
as §1

Assay [3] has as its target T3, PDZ protein (GST-PDZ fusion) (Homo sapiens, UniProt Q13424).
T3 construct: made in house; host or cells: E. coli (DH5alpha, BL21 or JM109)
T3 sequence (Q13424 1-505): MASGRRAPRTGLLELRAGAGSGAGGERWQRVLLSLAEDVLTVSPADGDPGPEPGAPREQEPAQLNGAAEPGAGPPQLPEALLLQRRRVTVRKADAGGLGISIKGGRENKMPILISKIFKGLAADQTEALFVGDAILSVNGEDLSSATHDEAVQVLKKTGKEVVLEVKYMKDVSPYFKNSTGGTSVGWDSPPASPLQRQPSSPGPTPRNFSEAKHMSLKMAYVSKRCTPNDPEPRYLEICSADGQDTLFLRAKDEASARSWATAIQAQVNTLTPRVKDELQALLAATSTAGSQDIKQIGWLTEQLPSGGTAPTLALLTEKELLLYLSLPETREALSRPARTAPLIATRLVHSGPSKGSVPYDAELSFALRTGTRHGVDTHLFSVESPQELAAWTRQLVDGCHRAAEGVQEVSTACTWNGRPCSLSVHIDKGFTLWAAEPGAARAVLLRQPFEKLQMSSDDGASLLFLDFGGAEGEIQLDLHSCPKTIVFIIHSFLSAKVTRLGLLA
Particulars: PDZ Synt. 1 alpha, PDZ Domain 1. In a few lines:
as §1

Assay [4] deals with T4, PDZ protein (GST-PDZ fusion) (Homo sapiens, UniProt Q5T2W1).
T4 construct: made in house; host or cells: E. coli (DH5alpha, BL21 or JM109)
T4 sequence (Q5T2W1 1-519): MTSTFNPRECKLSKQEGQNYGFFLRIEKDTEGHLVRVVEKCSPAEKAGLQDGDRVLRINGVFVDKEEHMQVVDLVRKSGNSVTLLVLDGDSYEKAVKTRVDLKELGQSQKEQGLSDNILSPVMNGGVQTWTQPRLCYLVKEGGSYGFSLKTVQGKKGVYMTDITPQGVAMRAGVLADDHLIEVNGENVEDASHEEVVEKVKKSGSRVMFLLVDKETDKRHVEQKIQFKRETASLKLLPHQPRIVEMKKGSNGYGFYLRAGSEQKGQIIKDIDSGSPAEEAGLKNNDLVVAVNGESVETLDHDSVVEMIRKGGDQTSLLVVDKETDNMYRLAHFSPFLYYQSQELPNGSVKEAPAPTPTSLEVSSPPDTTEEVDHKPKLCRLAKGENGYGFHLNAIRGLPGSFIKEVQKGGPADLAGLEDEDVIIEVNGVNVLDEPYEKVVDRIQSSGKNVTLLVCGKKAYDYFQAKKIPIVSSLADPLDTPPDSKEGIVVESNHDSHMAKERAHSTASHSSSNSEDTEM
As to conditions: PDZ PDZK1, PDZ Domain 2, 3, 4. In a few lines:
as §1

Assay [5] deals with T5, PDZ protein (GST-PDZ fusion) (Homo sapiens, UniProt O14745).
T5 construct: made in house; host or cells: E. coli (DH5alpha, BL21 or JM109)
T5 sequence (O14745 1-358): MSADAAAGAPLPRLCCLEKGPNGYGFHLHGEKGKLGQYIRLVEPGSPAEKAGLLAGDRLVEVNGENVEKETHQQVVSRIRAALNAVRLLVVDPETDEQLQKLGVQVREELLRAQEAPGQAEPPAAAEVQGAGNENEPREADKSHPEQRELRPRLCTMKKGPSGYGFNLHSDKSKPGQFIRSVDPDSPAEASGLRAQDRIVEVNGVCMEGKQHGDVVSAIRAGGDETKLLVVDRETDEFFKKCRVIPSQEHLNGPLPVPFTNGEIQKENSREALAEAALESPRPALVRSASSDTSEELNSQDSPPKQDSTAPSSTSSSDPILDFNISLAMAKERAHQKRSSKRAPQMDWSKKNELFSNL
In outline:
as §1

Assay [6] addresses T6, PDZ protein (GST-PDZ fusion) (Homo sapiens, UniProt Q9C0E4).
T6 construct: made in house; host or cells: E. coli (DH5alpha, BL21 or JM109)
As to conditions: PDZ KIAA1719, PDZ Domain 6. In outline: as §1

T2 sequence (Q9Y2H9 whole entry, the tested form may be a part): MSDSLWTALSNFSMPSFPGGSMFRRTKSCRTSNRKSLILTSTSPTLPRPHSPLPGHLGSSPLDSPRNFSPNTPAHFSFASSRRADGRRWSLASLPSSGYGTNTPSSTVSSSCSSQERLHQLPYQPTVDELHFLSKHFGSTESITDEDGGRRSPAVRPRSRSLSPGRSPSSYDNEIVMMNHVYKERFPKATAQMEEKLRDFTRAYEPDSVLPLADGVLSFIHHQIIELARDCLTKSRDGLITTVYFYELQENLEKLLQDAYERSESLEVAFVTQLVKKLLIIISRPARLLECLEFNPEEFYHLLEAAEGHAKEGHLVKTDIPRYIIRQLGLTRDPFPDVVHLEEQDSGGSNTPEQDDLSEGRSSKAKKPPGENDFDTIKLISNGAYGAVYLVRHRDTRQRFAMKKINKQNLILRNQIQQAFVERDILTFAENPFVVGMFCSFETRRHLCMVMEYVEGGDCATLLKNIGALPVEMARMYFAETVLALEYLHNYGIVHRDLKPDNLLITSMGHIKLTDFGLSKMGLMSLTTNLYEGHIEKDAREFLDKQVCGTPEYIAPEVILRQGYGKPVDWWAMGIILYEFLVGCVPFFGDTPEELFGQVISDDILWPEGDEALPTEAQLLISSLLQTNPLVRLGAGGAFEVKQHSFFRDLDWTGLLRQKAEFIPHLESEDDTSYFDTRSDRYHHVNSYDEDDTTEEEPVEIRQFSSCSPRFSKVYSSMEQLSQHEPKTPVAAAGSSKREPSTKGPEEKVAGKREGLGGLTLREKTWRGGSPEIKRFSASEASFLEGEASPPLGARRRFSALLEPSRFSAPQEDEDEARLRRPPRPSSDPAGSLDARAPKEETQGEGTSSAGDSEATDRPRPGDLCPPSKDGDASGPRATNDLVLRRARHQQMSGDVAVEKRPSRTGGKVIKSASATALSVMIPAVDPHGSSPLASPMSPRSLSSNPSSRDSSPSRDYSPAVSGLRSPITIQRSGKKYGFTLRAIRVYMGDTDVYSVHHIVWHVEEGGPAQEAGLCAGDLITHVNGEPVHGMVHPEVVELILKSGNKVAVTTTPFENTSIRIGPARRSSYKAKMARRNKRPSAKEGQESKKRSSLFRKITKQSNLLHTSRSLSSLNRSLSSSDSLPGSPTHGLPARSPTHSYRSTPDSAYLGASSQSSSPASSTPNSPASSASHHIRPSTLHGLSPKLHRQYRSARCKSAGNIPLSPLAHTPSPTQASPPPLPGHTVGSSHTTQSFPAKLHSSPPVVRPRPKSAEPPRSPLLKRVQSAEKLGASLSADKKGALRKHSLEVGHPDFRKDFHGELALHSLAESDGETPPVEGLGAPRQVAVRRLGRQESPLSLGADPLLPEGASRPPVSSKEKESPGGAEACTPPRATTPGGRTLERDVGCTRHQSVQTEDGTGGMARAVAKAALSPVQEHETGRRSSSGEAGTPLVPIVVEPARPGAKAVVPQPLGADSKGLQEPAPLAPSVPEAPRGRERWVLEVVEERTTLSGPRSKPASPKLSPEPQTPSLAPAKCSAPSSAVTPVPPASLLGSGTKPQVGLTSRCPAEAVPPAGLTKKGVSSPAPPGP
T1 sequence (Q96RT1 whole entry, the tested form may be a part): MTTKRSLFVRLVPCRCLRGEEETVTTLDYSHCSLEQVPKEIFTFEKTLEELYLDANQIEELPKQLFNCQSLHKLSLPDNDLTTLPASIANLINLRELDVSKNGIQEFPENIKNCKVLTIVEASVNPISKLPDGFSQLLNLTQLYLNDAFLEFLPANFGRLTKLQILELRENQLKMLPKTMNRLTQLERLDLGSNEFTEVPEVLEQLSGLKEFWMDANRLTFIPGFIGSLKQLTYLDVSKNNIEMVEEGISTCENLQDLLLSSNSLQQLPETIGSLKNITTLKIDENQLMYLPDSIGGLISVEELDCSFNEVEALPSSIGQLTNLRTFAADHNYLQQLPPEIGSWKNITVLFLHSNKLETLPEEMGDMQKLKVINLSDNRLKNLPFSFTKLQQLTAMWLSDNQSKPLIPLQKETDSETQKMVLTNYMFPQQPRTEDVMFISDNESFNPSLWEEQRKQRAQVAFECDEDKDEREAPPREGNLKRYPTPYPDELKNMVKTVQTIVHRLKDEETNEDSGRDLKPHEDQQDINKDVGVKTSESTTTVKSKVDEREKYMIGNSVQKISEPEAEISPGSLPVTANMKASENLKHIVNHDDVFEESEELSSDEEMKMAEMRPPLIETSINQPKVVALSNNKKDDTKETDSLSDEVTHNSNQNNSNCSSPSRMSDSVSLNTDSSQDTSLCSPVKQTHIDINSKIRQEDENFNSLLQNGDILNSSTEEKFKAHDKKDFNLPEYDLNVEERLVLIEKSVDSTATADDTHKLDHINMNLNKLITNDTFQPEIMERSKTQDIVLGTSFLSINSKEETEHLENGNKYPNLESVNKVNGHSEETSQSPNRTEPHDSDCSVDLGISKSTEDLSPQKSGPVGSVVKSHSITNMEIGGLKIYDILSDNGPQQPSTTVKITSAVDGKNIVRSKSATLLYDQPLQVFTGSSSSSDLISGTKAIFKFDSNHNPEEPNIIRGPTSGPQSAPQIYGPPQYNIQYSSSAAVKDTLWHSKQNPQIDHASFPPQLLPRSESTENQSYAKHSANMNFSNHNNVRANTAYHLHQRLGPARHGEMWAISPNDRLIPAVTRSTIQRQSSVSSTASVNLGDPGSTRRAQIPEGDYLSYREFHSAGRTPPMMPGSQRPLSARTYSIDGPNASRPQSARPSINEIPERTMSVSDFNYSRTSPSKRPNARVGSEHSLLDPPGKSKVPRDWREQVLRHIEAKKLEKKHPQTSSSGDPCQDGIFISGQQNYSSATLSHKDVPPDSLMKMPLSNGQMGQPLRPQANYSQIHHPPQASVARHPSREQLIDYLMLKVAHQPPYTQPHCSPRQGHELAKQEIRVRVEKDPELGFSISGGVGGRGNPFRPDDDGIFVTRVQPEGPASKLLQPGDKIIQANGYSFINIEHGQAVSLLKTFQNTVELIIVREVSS
T6 sequence (Q9C0E4 whole entry, the tested form may be a part): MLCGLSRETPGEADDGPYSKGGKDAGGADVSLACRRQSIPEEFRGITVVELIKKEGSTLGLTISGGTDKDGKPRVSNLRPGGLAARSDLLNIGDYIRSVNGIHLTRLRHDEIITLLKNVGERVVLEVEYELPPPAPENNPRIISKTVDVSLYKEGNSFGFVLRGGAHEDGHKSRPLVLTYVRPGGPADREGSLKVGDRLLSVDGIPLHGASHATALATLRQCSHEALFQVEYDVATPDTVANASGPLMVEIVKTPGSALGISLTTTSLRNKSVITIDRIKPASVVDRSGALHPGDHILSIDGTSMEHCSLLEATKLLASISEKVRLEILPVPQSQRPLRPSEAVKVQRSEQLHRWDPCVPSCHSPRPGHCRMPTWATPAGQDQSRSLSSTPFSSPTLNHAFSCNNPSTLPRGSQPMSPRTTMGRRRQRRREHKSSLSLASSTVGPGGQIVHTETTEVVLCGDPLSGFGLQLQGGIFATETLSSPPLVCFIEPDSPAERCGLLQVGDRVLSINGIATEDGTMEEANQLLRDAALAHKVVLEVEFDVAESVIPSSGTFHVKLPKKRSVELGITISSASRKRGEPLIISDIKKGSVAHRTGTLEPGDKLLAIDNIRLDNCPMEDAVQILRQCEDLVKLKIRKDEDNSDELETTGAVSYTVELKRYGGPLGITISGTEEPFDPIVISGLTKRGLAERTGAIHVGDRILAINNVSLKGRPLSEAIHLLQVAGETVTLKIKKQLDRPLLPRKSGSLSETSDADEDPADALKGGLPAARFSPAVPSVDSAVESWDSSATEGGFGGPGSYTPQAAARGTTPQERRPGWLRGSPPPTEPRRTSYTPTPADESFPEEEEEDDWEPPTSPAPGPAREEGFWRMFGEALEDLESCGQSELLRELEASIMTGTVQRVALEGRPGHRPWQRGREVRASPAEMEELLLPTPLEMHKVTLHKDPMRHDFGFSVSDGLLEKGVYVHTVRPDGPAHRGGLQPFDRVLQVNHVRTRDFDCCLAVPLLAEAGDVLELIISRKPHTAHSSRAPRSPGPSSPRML

As for “PYSELNYETSHYPASPDSWV (Biotin-PYSELNYETSHYPASPDSWV) [catenin - delta 2]”, the Classification in assay [1] is listed as 4 (A450 nm 3-4).
In the case of TQGFPGPATWRRISSLESEV, the Classification is 1 (A450 nm 0-1) in assay [2], 4 (A450 nm 3-4) in assay [1] and 4 (A450 nm 3-4) in assay [3].
With `CC(C)C[C@H](NC(=O)[C@H](C)NC(=O)[C@@H](NC(=O)[C@H](CCC(=O)O)NC(=O)[C@H](CCCNC(=N)N)NC(=O)[C@H](CCCNC(=N)N)NC(=O)CNC(=O)[C@H](CCC(N)=O)NC(=O)[C@H](CC(C)C)NC(=O)[C@H](CCCNC(=N)N)NC(=O)CNC(=O)CNC(=O)[C@H](CCCNC(=N)N)NC(=O)[C@H](C)NC(=O)[C@H](CO)NC(=O)[C@H](CCCNC(=N)N)NC(=O)CNC(=O)CNC(=O)[C@H](C)NC(=O)[C@H](C)NC(=O)CCCC[C@@H]1SC[C@@H]2NC(=O)N[C@@H]21)[C@@H](C)O)C(=O)O` [HPV E6 33 (modified)] (Biotin-AAGGRSARGGRLQGRRETAL-OH; C-terminus assumed), the Classification in assay [3] is 3 (A450 nm 2-3); in assay [4] it was 1 (A450 nm 0-1); in assay [5] (PDZ EBP50, PDZ Domain 1) it was 2 (A450 nm 1-2); in assay [5] (PDZ EBP50, PDZ Domain 2), 2 (A450 nm 1-2).
Turning to `CC(C)C[C@H](NC(=O)[C@H](C)NC(=O)[C@H](CO)NC(=O)CNC(=O)[C@@H](NC(=O)CCCC[C@@H]1SC[C@@H]2NC(=O)N[C@@H]21)[C@@H](C)O)C(=O)N[C@@H](CCC(N)=O)C(=O)N[C@@H](C)C(=O)N[C@@H](Cc1c[nH]c2ccccc12)C(=O)N[C@@H](CCCNC(=N)N)C(=O)N[C@@H](Cc1c[nH]cn1)C(=O)N[C@H](C(=O)N[C@@H](CO)C(=O)N[C@@H](CCCNC(=N)N)C(=O)N[C@@H](CCC(N)=O)C(=O)N[C@@H](C)C(=O)N[C@H](C(=O)N[C@@H](CCC(=O)O)C(=O)N[C@@H](CO)C(=O)N[C@H](C(=O)N[C@H](C(=O)O)C(C)C)[C@@H](C)O)[C@@H](C)O)[C@@H](C)O` [HPV E6 #66 (modified)] (Biotin-TGSALQAWRHTSRQATESTV-OH; C-terminus assumed), the Classification is given as 1 (A450 nm 0-1) in assay [1] and 2 (A450 nm 1-2) in assay [3].
Take `CC[C@H](C)[C@H](NC(=O)[C@H](CCC(N)=O)NC(=O)CCCC[C@@H]1SC[C@@H]2NC(=O)N[C@@H]21)C(=O)N[C@@H](CO)C(=O)N1CCC[C@H]1C(=O)NCC(=O)NCC(=O)N[C@@H](CC(C)C)C(=O)N[C@@H](CCC(=O)O)C(=O)N1CCC[C@H]1C(=O)N1CCC[C@H]1C(=O)N[C@@H](CO)C(=O)N[C@@H](CCC(=O)O)C(=O)N[C@@H](CCCCN)C(=O)N[C@@H](Cc1c[nH]cn1)C(=O)N[C@@H](Cc1ccccc1)C(=O)N[C@@H](CCCNC(=N)N)C(=O)N[C@@H](CCC(=O)O)C(=O)N[C@H](C(=O)N[C@@H](CCC(=O)O)C(=O)N[C@H](C(=O)O)C(C)C)[C@@H](C)O` [Tax]: the Classification in assay [1] is 5 (A450 nm of 4 more than 2× repeated).
For `CC(C)C[C@H](NC(=O)[C@H](CC(=O)O)NC(=O)[C@H](CO)NC(=O)[C@H](CCC(=O)O)NC(=O)CNC(=O)[C@H](Cc1ccc(O)cc1)NC(=O)[C@H](CC(C)C)NC(=O)[C@H](C)NC(=O)[C@H](CO)NC(=O)[C@H](CO)NC(=O)[C@H](Cc1ccccc1)NC(=O)[C@H](C)NC(=O)[C@H](C)NC(=O)[C@H](Cc1ccc(O)cc1)NC(=O)[C@H](CC(=O)O)NC(=O)[C@H](CC(C)C)NC(=O)[C@H](C)NC(=O)CNC(=O)[C@@H]1CCCN1C(=O)[C@@H](NC(=O)CCCC[C@@H]1SC[C@@H]2NC(=O)N[C@@H]21)C(C)C)C(=O)O` [a-actinin 2] (Biotin-VPGALDYAAFSSALYGESDL-OH; C-terminus assumed), the Classification in assay [2] is listed as 2 (A450 nm 1-2); in assay [1] it was 1 (A450 nm 0-1); in assay [3], 3 (A450 nm 2-3).
`CC[C@H](C)[C@H](NC(=O)[C@H](Cc1c[nH]cn1)NC(=O)[C@H](C)NC(=O)[C@H](C)NC(=O)[C@H](CO)NC(=O)[C@@H]1CCCN1C(=O)[C@H](CCCNC(=N)N)NC(=O)[C@H](CC(=O)O)NC(=O)[C@H](CCCCN)NC(=O)[C@@H]1CCCN1C(=O)[C@H](CC(=O)O)NC(=O)[C@H](CCC(=O)O)NC(=O)CCCC[C@@H]1SC[C@@H]2NC(=O)N[C@@H]21)C(=O)N[C@H](C(=O)N[C@@H](CCC(=O)O)C(=O)N[C@@H](C)C(=O)N[C@@H](CC(C)C)C(=O)N[C@@H](CCC(=O)O)C(=O)N[C@H](C(=O)N[C@@H](CC(=O)O)C(=O)N[C@H](C(=O)O)C(C)C)[C@@H](C)O)C(C)C` [PDZ-binding kinase (PBK)] (Biotin-EDPKDRPSAAHIVEALETDV-OH; C-terminus assumed): the Classification in assay [3] is on record as 1 (A450 nm 0-1).
Turning to “ARHRVTSYTSSSVNVSSNL (Biotin-ARHRVTSYTSSSVNVSSNL) [IL-8RB]”, the Classification in assay [3] and in assay [4] was 1 (A450 nm 0-1) each time.
As to `CC[C@H](C)[C@H](NC(=O)CNC(=O)[C@H](CO)NC(=O)[C@H](Cc1ccccc1)NC(=O)[C@@H](NC(=O)[C@H](CS)NC(=O)CNC(=O)CNC(=O)[C@H](C)NC(=O)[C@@H]1CCCN1C(=O)[C@@H](NC(=O)[C@@H]1CCCN1C(=O)CCCC[C@@H]1SC[C@@H]2NC(=O)N[C@@H]21)[C@@H](C)CC)[C@@H](C)O)C(=O)N[C@@H](Cc1ccccc1)C(=O)N1CCC[C@H]1C(=O)N[C@H](C(=O)N[C@@H](CC(C)C)C(=O)N[C@H](C(=O)N[C@@H](CO)C(=O)N1CCC[C@H]1C(=O)N[C@@H](CC(C)C)C(=O)O)[C@@H](C)O)[C@@H](C)O` [KIA 1481] (Biotin-PIPAGGCTFSGIFPTLTSPL-OH; C-terminus assumed), the Classification was 2 (A450 nm 1-2) in assay [2]; 2 (A450 nm 1-2) in assay [4]; 2 (A450 nm 1-2) in assay [5] (PDZ EBP50, PDZ Domain 1); 2 (A450 nm 1-2) in assay [5] (PDZ EBP50, PDZ Domain 2).
Take “ELLQFCRTPNPALKNGQYWV (Biotin-ELLQFCRTPNPALKNGQYWV)”: the figures for the Classification in assay [6] and in assay [1] were 5 (A450 nm of 4 more than 2× repeated) and 3 (A450 nm 2-3), respectively.
`CC(C)C[C@H](NC(=O)[C@H](CCCNC(=N)N)NC(=O)CNC(=O)CNC(=O)[C@H](CCCNC(=N)N)NC(=O)[C@H](C)NC(=O)[C@@H]1CCCN1C(=O)[C@H](CCCNC(=N)N)NC(=O)CNC(=O)CNC(=O)[C@@H](NC(=O)[C@H](C)NC(=O)CCCC[C@@H]1SC[C@@H]2NC(=O)N[C@@H]21)C(C)C)C(=O)N[C@@H](CCC(N)=O)C(=O)NCC(=O)N[C@@H](CCCNC(=N)N)C(=O)N[C@@H](CCCNC(=N)N)C(=O)N[C@@H](CCC(N)=O)C(=O)N[C@H](C(=O)N[C@@H](CCC(N)=O)C(=O)N[C@H](C(=O)O)C(C)C)[C@@H](C)O` [HPV E6 58 (modified)] (Biotin-AVGGRPARGGRLQGRRQTQV-OH; C-terminus assumed): the Classification is on record as 2 (A450 nm 1-2) in assay [2], 2 (A450 nm 1-2) in assay [3] and 1 (A450 nm 0-1) in assay [4].
On to “PPATPSPRLALPAHHNATRL (Biotin-PPATPSPRLALPAHHNATRL) [Na+/Pi cotransporter 2]”, for which the Classification is 2 (A450 nm 1-2) in assay [2]; 1 (A450 nm 0-1) in assay [4]; 5 (A450 nm of 4 more than 2× repeated) in assay [5] (PDZ EBP50, PDZ Domain 1); 2 (A450 nm 1-2) in assay [5] (PDZ EBP50, PDZ Domain 2).
